Laboratory results taken from patent US10647680B2, “Urea compound, preparation method therefor and medical use thereof” (Ancureall Pharmaceutical (Shanghai) Co., Ltd., priority 2016, dated 2020).
Where two headings read alike, the source gives them in different places.

What was measured:
[1] = tested on: HCC827 (EGFR exon19 E746-A750 deletion); experiment: In vitro growth inhibition (GI50), HCC827; format: cell-based; conditions: Homo sapiens; HCC827, EGFR DelE746-A750
From the text: Tumor cell line is an effective cell model for studying the inhibition of tumor cell growth or proliferation in vitro. In the present invention, a representative tumor cell line was selected to determine the cell growth inhibition activity of the present compound. All cell lines used were from ATCC, DSMZ, and the Cell Bank of the Chinese Academy of Sciences. Cell culture conditions and methods were in accordance with the requirements of each cell line. Cells were subcultured in vitro for no more than 3 passages each time, and as required, single-clone purification and identification of cell lines could be carried out.
The cell culture media used were RPMI1640 (Gibco), MEM (Gibco), McCOY'S5A (Gibco), and IMDM (Gibco). The complete medium was prepared by supplement with 5˜20% fetal calf serum (Gibco), 1% double-antibiotics (10000 units/mL penicillin and 10000 units/mL), 2 mM glutamine or 1 mM sodium pyruvate, respectively.
Human epidermal cancer cell line A431 (EGFR WT, amplification and high expression, from Shanghai Cell Bank of Chinese Academy of Sciences and ATCC), human lung cancer cell line NCI-H292 (EGFR WT, purchased from Shanghai Cell Bank of Chinese Academy of Sciences), NSCLC cell lines PC-9 and HCC827 (EGFR exon19 E746-A750 deletion, two cell lines are sensitive to the first-generation EGFR PTK inhibitor), NSCLC cell line NCI-H1975 (EGFR L858R/T790M and the first-generation EGFR inhibitor resistance, ATCC) were cultured with 1×RPMI1640 complete medium (supplement with 10% FBS), respectively.
Adherent cells were digested with 0.25% pancreatin-EDTA (Gibco). The suspension cells were collected by centrifugation. The supernatant was discarded and the cell pellet was resuspended and counted. Different cell concentrations (5˜10×10^4 cells/mL) were prepared according to the growth cycle of each cell line and then seeded on a 96-well plate (Corning), 100 μL/well. The cells were incubated overnight at 37° C., 5% CO2. The compounds were added to the cells on the second day with 2 wells in parallel. The final concentration of organic solvent shall not exceed 1%. The cells were continually incubated for 3 to 5 days, and then subjected to MTT assay.
The compound of the present invention and the control compound were dissolved in DMSO (Sigma) respectively, with the purity of more than 98%. The compound was stored in a concentration of 10 mM at −20° C. and diluted to 2- or 10-fold series prior to use.
Dojindo CCK8 reagent kit was used as MTT assay. THERMO […] FC meter was used as microplate reader.
For adherent cells, culture medium was removed and immediately replaced with the fresh prepared medium which contains 10% CCK8 reagent (100 μL/well). For the suspension cells, CCK8 was directly added to 10% of the final concentration. The cells were continually incubated for 1˜4 h. When a dark yellow color could be observed in the solvent control wells, the absorbance value at OD450 nm was measured and the cell growth rate was calculated according to the following formula: Cell Growth Rate (%)=100*(T−T0)/(C−T0) T=optical density of drug treatment cell well—optical density of blank control well; T0=optical density of cell well before drug treatment—optical density of blank control well; C=optical density of cell well of solvent control group—optical density of blank control well. The concentration value of 50% inhibition of cell growth (GI50) was calculated according to the drug concentration and cell growth rate curve. The experiment was independently repeated 1˜3 times, and subject to biological statistical analysis. 4. Experimental Results
Tumor cell growth inhibition test was performed by selecting representative compounds (compounds 4, 11, 12, 16, 27, 68, 71, 77, 79, 89 and 116 of the present invention). The initial concentration of the compound was 5,000 nM, then it was serially diluted by 2-fold or 10-fold to 0.01 nM. The GI50 value of each test compound was calculated according to the GI50 assay and calculation method. […]

[2] = tested on: KG-1 (expressing FGFR1OP2-FGFR1 fusion protein); experiment: In vitro growth inhibition (GI50), KG-1; format: cell-based; conditions: Homo sapiens; Cell lines of leukemia; read-out: GI 50 KG-1 FGFR1OP 2-FGFR1
[3] = tested on: U937 (FLT3 wild-type); experiment: In vitro growth inhibition (GI50), U937; format: cell-based; conditions: Homo sapiens, U-937; Cell lines of leukemia; read-out: GI 50 U937 FLT 3(WT)
[4] = tested on: RS4; 11 (FLT3 wild type); experiment: In vitro growth inhibition (GI50), RS4; 11; format: cell-based, human; conditions: for GI50 value, RS4; 11 (in words) / inhibitory effect on RS4; 11: FLT3 wild type high-expressing cells RS4; for inhibitory effect on RS4; 11: 11, under high concentrations; for GI50: Homo sapiens
[5] = RS4-11, Cell lines of leukemia, read-out: GI 50 RS4: 11 FLT3 (WT)
[6] = RS4, 11, FLT3 WT, read-out: GI50
[7] = FLT3 wild-type high expressing cell RS4, 11, Table 3, read-out: GI50 value, RS4, 11

SMILES | GI50 [1] | GI50 [2] | GI50 [3] | GI50 value, RS4; 11 (in words) [4]; 11 | inhibitory effect on RS4; 11 [4] | GI50 [4, 5] | GI50 [4, 6] | GI50 [4, 7]
CC(C)(C)c1cc(NC(=O)Nc2ccc(-n3cnc4cc(OCCN5CCOCC5)ccc43)cc2)no1 [Compound 16, 1-(5-tert-butyl-isoxazol-3-yl)-3-{4-[5-(2-morpholin-4-yl-ethoxyl)-benzimidazol-1-yl]-phenyl}-urea] | > 2500 nM | > 1000 nM | > 1000 nM | micromolar range | no obvious inhibitory effect | > 1000 nM | 1750 nM | –
CC(C)(C)c1cc(N)n(C(=O)Nc2ccc(-n3cnc4ccccc43)cc2)n1 [Compound 116, 5-amino-3-tert-butyl-pyrazol-1-carboxylic acid (4-benzimidazol-1-yl-phenyl)-amide] | > 2500 nM | > 1000 nM | > 1000 nM | micromolar range | no obvious inhibitory effect | > 1000 nM | 2100 nM | –
CC(C)(C)c1cc(NC(=O)Nc2ccc(-n3cnc4cc(OCCO)ccc43)cc2)[nH]n1 [Compound 79, 1-(5-tert-butyl-2H-pyrazol-3-yl)-3-{4-[5-(2-hydroxy-ethoxyl)-benzimidazol-1-yl]-phenyl]urea] | > 2500 nM | > 1000 nM | > 1000 nM | – | – | > 1000 nM | 768 nM | 50 to 800 nM
CC(C)(C)c1cc(NC(=O)Nc2ccc(-n3cnc4cc(OCCN5CCOCC5)ccc43)cc2)[nH]n1 [Compound 89, 1-(5-tert-butyl-2H-pyrazol-3-yl)-3-{4-[5-(2-morpholin-4-yl-ethoxyl)-benzimidazol-1-yl]-phenyl}-urea] | > 2500 nM | > 1000 nM | > 1000 nM | micromolar range | no obvious inhibitory effect | > 1000 nM | 2090 nM | –
COCCOc1ccc2c(c1)ncn2-c1ccc(NC(=O)Nc2cc(C(C)(C)C)n[nH]2)cc1 [Compound 77, 1-(5-tert-butyl-2H-pyrazol-3-yl)-3-{4-[5-(2-methoxyl-ethoxyl)-benzimidazol-1-yl]-phenyl}-urea] | > 2500 nM | > 1000 nM | > 1000 nM | micromolar range | no obvious inhibitory effect | > 1000 nM | 2490 nM | –
COc1ccc2c(c1)ncn2-c1ccc(NC(=O)Nc2cc(C(C)(C)C)n[nH]2)cc1 [Compound 71, 1-(5-tert-butyl-2H-pyrazol-3-yl)-3-[4-(5-methoxyl-benzimidazol-1-yl)-phenyl]-urea] | > 2500 nM | > 1000 nM | > 1000 nM | micromolar range | no obvious inhibitory effect | > 1000 nM | 2750 nM | –
CC(C)(C)c1cc(NC(=O)Nc2ccc(-n3cnc4ccccc43)cc2)[nH]n1 [Compound 68, 1-(4-benzimidazol-1-yl-phenyl)-3-(5-tert-butyl-2H-pyrazol-3-yl)-urea] | > 2500 nM | > 1000 nM | > 1000 nM | micromolar range | no obvious inhibitory effect | > 1000 nM | 3500 nM | –
CC(C)(C)c1cc(NC(=O)Nc2ccc(-n3cnc4ccc(OCCN5CCOCC5)cc43)cc2)no1 [Compound 27, 1-(5-tert-butyl-isoxazol-3-yl)-3-{4-[6-(2morpholin-4-yl-ethoxyl)-benzimidazol-1-yl]-phenyl}-urea] | > 2500 nM | 100 to 1000 nM | > 1000 nM | micromolar range | no obvious inhibitory effect | > 1000 nM | 2380 nM | –
CC(C)(C)c1cc(NC(=O)Nc2ccc(-n3cnc4cc(O)ccc43)cc2)no1 [Compound 4, 1-(5-tert-butyl-isoxazol-3-yl)-3-[4-(5-hydroxy-benzimidazol-1-yl)-phenyl]-urea] | > 2500 nM | 100 to 1000 nM | 100 to 1000 nM | – | – | 100 to 1000 nM | 234 nM | 50 to 800 nM
CC(C)(C)c1cc(NC(=O)Nc2ccc(-n3cnc4cc(OCCO)ccc43)cc2)no1 [Compound 11, 1-(5-tert-butyl-isoxazol-3-yl)-3-{4-[5-(2-hydroxy-ethoxyl)-benzimidazol-1-yl]-phenyl]-urea] | > 2500 nM | > 1000 nM | > 1000 nM | – | – | 10 to 100 nM | 57.4 nM | 50 to 800 nM
